Data on ten compounds can be found in patent US4528299A, “1-(2,3-Dimethyl-4-methoxyphenyl)-2-methyl-3-(1-pyrrolidinyl)-1-propanone and anti-spastic use thereof” (priority 1982, dated 1985).

Data set [1] deals with anemic decerebrate rigidity (α-rigidity). The data set can be described thus: Effect on anemic decerebrate rigidity (α-rigidity), EMG activity of M. triceps brachii, cumulative i.v. injection. The format is in vivo, Male rats of Wistar strain. The following applies: for ED50: Rattus norvegicus, iv, 5 min, cumulative 1.25-20 mg/kg, dose reducing EMG activity to 50%; for ED50 / α-Rigidity reducing effect Duration: rats; for α-Rigidity reducing effect Duration: time from disappearance to reappearance of EMG activities after total dose of 20 mg/kg, i.v. On the procedure: Anemic decerebrate rigidity is known to be a model showing the abnormal hypertonia. This model was prepared according to the method of Fukuda et al [cf. Japan. J. Pharmacol. 24, 810-813 (1974)]. Male rats of Wistar strain, weighing 250 to 350 g, were used in groups of 5 animals. Under the ether anesthesia, the animal was fixed on its back. After the oesophagus and bilateral common carotid arteries were exposed, the trachea was cannulated and the oesophagus was cut between two placed ligatures. The occipital bone was exposed. The common carotid arteries were ligated bilaterally and a trephined opening was made in the central part of the bone. The dura matter was cut along the basilar artery, and the artery was cauterized with a coagulator of bipolar pincette electrodes (Micro-ID made by Mizuhoika Kogyo Co., Ltd., Japan). After the operation, anesthesia was discontinued. The marked rigidity occurred in the forelimbs within 15 minutes after the operation.
The rat was placed on its back and the hindlimbs fixed. Electromyogram (EMG) was recorded by a coaxial needle electrode inserted into the Musculus triceps brachii of the forelimbs. Reference electrode was inserted into the hindlimb muscle. EMG activities obtained from the muscle were amplified, transformed into the square wave pulses with the window discriminator, and fed into integrator, the out-put of which was amplified and recorded by an inkwriting recorder.
The test compounds were dissolved in distilled water. After the EMG activities had remained stable over 15 to 30 minutes, the test compounds were cumulatively injected at a 5-minute interval into a cannulated femoral vein. The doses administered were 1.25 mg/kg, 2.5 mg/kg, 5.0 mg/kg, 10 mg/kg and finally 20 mg/kg. The EMG activities were expressed as a percentage of the pre-injection value, and the maximal effect within 5 minutes was measured in each dose. The median effective dose (ED50), the dose which reduced the EMG activity to 50%, was calculated by the method of Litchfield and Wilcoxon. In addition, the time from disappearance to reappearance of EMG activities after total dose of 20 mg/kg was expressed as the duration of the effect.

Another data set deals with muscle relaxation. The data set can be described thus: Muscle relaxant effect (Traction test). The format is in vivo, Male mice of STD-ddY strain. The conditions noted are these: for ED50: Mus musculus, ip, 0.25 h, i.p., mice, 15 minutes after administration. Here is the method:
Traction test was used as an index of the muscle relaxation. Male mice of STD-ddY strain, weighing 20 to 25 g, were used in groups of 5 animals. The test compounds, suspended or dissolved in 0.5% tragacanth solution, were intraperitoneally administered at a volume of 0.1 ml/10 g body weight, and 15 minutes after the administration the muscle relaxant effects were examined according to the method of Courvoisier et al (cf. "Psychotropic Drugs", ed. by Garattini, S. and Ghetti, V., Elsevier Pub. Co., Amsterdam, 1957, page 373). The animal was suspended by their forelimbs on a horizontal metal bar with a diameter of 2 mm. The rod was 18 cm above the floor. The animals which could not put their hindlimb on the rod within 5 seconds were judged as a positive (all-or-nothing way). The median effective dose (ED50), the dose which caused the positive effects in 50% of animals, were calculated according to the method of Litchfield and Wilcoxon.

The nature of another data set: Acute toxicity. The format is in vivo. The following applies: mouse, in vivo, ip, mice; for LD50 at 168 h: 7 days observation; for selectivity ratio: (LD50)/(ED50 of Muscle relaxant effect), i.p., read-out: Safety index. On the procedure:
(§1) Male mice of STD-ddY strain, weighing 23 to 25 g, were used in groups of 10 animals. The test compounds, suspended or dissolved in 0.5% tragacanth solution, were intraperitoneally administered at a volume of 0.1 ml/10 g body weight. After the administration, the mice were kept for 7 days, and observed for death. The median lethal dose (LD50), the dose which caused death in 50% of animals, were calculated according to the method of Litchfield and Wilcoxon.

For another data set, the system named is mice. The data set can be described thus: Acute toxicity. The format is in vivo. Here is the method: as §1
Data set [2] relates to anemic decerebrate rigidity (α-rigidity). The data set can be described thus: Effect on anemic decerebrate rigidity (α-rigidity), EMG activity of M. triceps brachii, cumulative i.v. injection. The format is in vivo, Male rats of Wistar strain.

SMILES strings stand for the structures.

As to `CCOc1ccc(C(=O)C(C)CN2CCCC2)c(C)c1C` (stereo not drawn) [Compound 8], in data set [1], the ED50 is 9.6 mg/kg and the “α-Rigidity reducing effect Duration” value was 14.8 min. This compound gave a median effective dose (ED50) in the data set on muscle relaxation of 75.5 mg/kg. In “Acute toxicity”, the LD50 at 168 h turned out to be 134 mg/kg and the selectivity ratio is 1.78.

Regarding `COc1ccc(C(=O)C(C)CN2CCCC2)c(C)c1C` (stereo not drawn) [A, 1-(2,3-dimethyl-4-methoxyphenyl)-2-methyl-3-(1-pyrrolidinyl)-1-propanone], in data set [1], the 50% effect level (ED50) was put at a dose of 2.6 mg/kg and the “α-Rigidity reducing effect Duration” value amounted to 16.3 min. In addition, in data set [1] (vs Compound No. 1), the “duration of action relative to Compound No. 1” value is “about 23 times” and the “potency in the reducing activity of α-rigidity relative to Compound No. 1” value is given as “about 4.7 times”. In addition, in data set [1] (vs Compound No. 2), the “duration of action relative to Compound No. 2” value is on record as “about 5.8 times” and the “potency in the reducing activity of α-rigidity relative to Compound No. 2” value is reported as “about 4.9 times”. In addition, in data set [1] (vs Compound No. 3), the “potency in α-rigidity reducing activity relative to Compound No. 3” value is reported as “about 7.8 times”. Moreover, in data set [1] (vs Compound No. 4), the “potency in α-rigidity reducing activity relative to Compound No. 4” value is on record as “about 2.7 times”. In data set [1] (vs Compound No. 5), the “duration of action relative to Compound No. 5” value is “about 1.9 times” and the “potency in the reducing activity of α-rigidity relative to Compound No. 5” value is given as “about 6 times”. In addition, the “potency in the reducing activity of α-rigidity relative to Compound No. 6” value in data set [1] (vs Compound No. 6) is given as “about 2.8 times”. In data set [1] (vs Compound No. 6, in words), the “duration of action relative to Compound No. 6” value is given as “somewhat longer”. For the same compound, in data set [1] (vs Compound No. 7), the “potency in the reducing activity of α-rigidity relative to Compound No. 7” value is reported as “about 6.6 times”. For the same compound, the “potency in the reducing activity of α-rigidity relative to Compound No. 8” value in data set [1] (vs Compound No. 8) is listed as “about 3.7 times”. Besides, the “pharmacological activities relative to known analogous compound Nos. 1 to 5” value in data set [1] (vs compound Nos. 1 to 5, overall conclusion from Tests 1-3) was “far greater”. Also, the “pharmacological activities relative to novel analogous compound Nos. 6 to 8” value in data set [1] (vs compound Nos. 6 to 8, overall conclusion from Tests 1-3) is “fairly or far greater”. This compound also gave an ED50 in the data set with muscle relaxation of 68.5 mg/kg. Also, the “potency in muscle relaxant activity relative to Compound No. 1” value in the data set with muscle relaxation (vs Compound No. 1) is “about 2.3 times”. Also, the “potency in muscle relaxant activity relative to Compound No. 3” value in the data set on muscle relaxation (vs Compound No. 3) is listed as around 2.3 times. In the data set with muscle relaxation (vs Compound No. 4), the “potency in muscle relaxant activity relative to Compound No. 4” value is given as around 1.8 times. In the data set “Acute toxicity”, the LD50 at 168 h amounted to 161 mg/kg and the selectivity ratio is 2.35. The “safety index relative to Compound No. 1” value in the data set on mice (vs Compound No. 1) was “about 1.8 times”. Moreover, the “safety index relative to Compound No. 3” value in the data set with mice (vs Compound No. 3) is recorded as “about 1.5 times”. For the same compound, the “safety index relative to Compound No. 6” value with mice (vs Compound No. 6, in words) is “higher safety index”. Besides, the “safety index relative to Compound No. 8” value in the data set with mice (vs Compound No. 8, in words) is listed as “higher safety index”.

`COc1ccc(C(=O)C(C)CN2CCCCC2)c(C)c1C` (stereo not drawn) [Compound 6]: in data set [1], the median effective dose (ED50) worked out at 7.3 mg/kg and the “α-Rigidity reducing effect Duration” value stood at 11.4 min. The same compound returned an ED50 in the data set with muscle relaxation of 77.7 mg/kg. Further, in “Acute toxicity”, the LD50 at 168 h was determined as 145 mg/kg and the selectivity ratio is 1.87.

In data set [1], `Cc1cc(C)c(C(=O)C(C)CN2CCCCC2)c(C)c1` (stereo not drawn) [Compound 4] came in with a 50% effective dose (ED50) of 6.9 mg/kg. This compound also came in with an ED50 in the data set on muscle relaxation of 123 mg/kg. In “Acute toxicity”, the LD50 at 168 h is 156 mg/kg and the selectivity ratio turned out to be 1.27. The toxicity in rats result in data set [2] was “high toxicity in rats”.

Take `COc1ccc(C(=O)C(C)CN2CCCC2)c(C)c1C` (stereo not drawn) [compound (I), 1-(2,3-dimethyl-4-methoxyphenyl)-2-methyl-3-(1-pyrrolidinyl)-1-propanone]: the “central muscle relaxant activities in comparison with the known compounds” value with muscle relaxation (overall conclusion, in words) was “highly improved, excellent”. For the same compound, the toxicity entry with mice (overall conclusion, in words) is reported as “low toxicity”.

On to `Cc1ccc(C(=O)C(C)CN2CCCCC2)cc1C` (stereo not drawn) [Compound 5], for which, in data set [1], the ED50 came to 15.6 mg/kg and the “α-Rigidity reducing effect Duration” value amounted to 8.8 min. The same compound gave a median effective dose (ED50) in the data set on muscle relaxation of 59.3 mg/kg. Moreover, in “Acute toxicity”, the 50% lethal dose (LD50) at 168 h stood at 140 mg/kg and the selectivity ratio was 2.36.

Turning to `Cc1ccc(C(=O)C(C)CN2CCCCC2)cc1` (stereo not drawn) [Compound 1, 2-methyl-1-p-methylphenyl-3-piperidino-1-propanone], in data set [1], it took a dose of 12.3 mg/kg to reach the 50% effect level (ED50) and the “α-Rigidity reducing effect Duration” value amounted to 0.7 min. This compound also registered an ED50 in the data set with muscle relaxation of 156 mg/kg. In the data set “Acute toxicity”, the median lethal dose (LD50) at 168 h amounted to 210 mg/kg and the selectivity ratio stood at 1.34.

Consider `COc1ccc(C(=O)C(C)CN2CCCCC2)cc1OC` (stereo not drawn) [Compound 3], for which, in data set [1], the ED50 came to 20.2 mg/kg. The compound further yielded an ED50 in the data set on muscle relaxation of 158 mg/kg. In addition, in the data set “Acute toxicity”, the 50% lethal dose (LD50) at 168 h is 247 mg/kg and the selectivity ratio turned out to be 1.56.

Consider `CCc1ccc(C(=O)C(C)CN2CCCCC2)cc1` (stereo not drawn) [Compound 2], for which, in data set [1], it took a dose of 12.7 mg/kg to reach the 50% effect level (ED50) and the “α-Rigidity reducing effect Duration” value was found to be 2.8 min. In the data set with muscle relaxation, the ED50 amounted to 64.2 mg/kg. For the same compound, in “Acute toxicity”, the LD50 at 168 h came out at 129 mg/kg and the selectivity ratio was 2.01.

`COc1ccc(C(=O)CCN2CCCC2)c(C)c1C` [Compound 7] had a 50% effective dose (ED50) in data set [1] of 17.2 mg/kg. The compound further returned an ED50 with muscle relaxation of 87.1 mg/kg. Further, in “Acute toxicity”, the LD50 at 168 h was found to be 174 mg/kg and the selectivity ratio was found to be 2.

The term ED50 denotes the dose that gives a 50% effect, or the effect in half of the subjects. Low readings indicate an effect at a small dose, high ones a need for a large dose. What is called LD50 is the dose at which mortality reaches 50%. Higher therefore signals a less toxic substance.
